System: not listed separately
Test: Resazurin cell viability pre-screen in DU145-TXR cells with or without PTX
Type: cell-based
Settings: human, mean of two experiments in triplicate, read-out: Viability, 15 µM compound alone
Method: Culture of the DU145, DU145-TXR, and HFL1 cell lines was performed as described in [8]. Culture of the A2780 and A2780-ADR cell lines was performed as described in [9]. MTT assays were performed as described in [8] with minor modifications. LC-MS/MS accumulation assays were performed as described in {Nanayakkara, 2018 #173} [9] with some modifications. […] The inhibitor concentration was lowered to 15 µM here, as the goal of the study was to identify compounds that were effective in reversing MDR at low concentrations, and to determine if the expanded virtual-assisted methods improved on our first-draft attempt. Compounds 56–98 were pre-screened using Resazurin cell viability assays: cells were incubated with 15 µM compound with or without 500 nM PTX for 48 hours, after which cell survival was assessed similar to [39]. Data represent the mean of two separate experiments, with n = 3 samples per experiment (n = 6 total) (S4 Table). The top performing compounds from this initial screen were re-tested with MTT viability assays against DU145-TXR cells, as described below.
S4 Table. Pre-screening of compounds 56 – 98 against DU145-TXR cells with resazurin assays. DU145-TXR cells were incubated with 15 µM compound with or without 500nM PTX for 48 hrs; survival was subsequently determined with the Resazurin viability assay ^[37]. […] Percent re-sensitization is defined as the percent change in viability between cells treated with compound and PTX, versus cells treated with PTX alone. In some instances, the assay reported an increase in viability with compound + PTX, and no percent sensitization is reported. ‘Follow-up Testing’ compounds were re-assessed with MTT assays (Figure 1). Compounds 59 and 89 (*, ‘Follow-up Testing’) were used as negative controls in follow-up MTT assays to test for consistency of results, e.g. to confirm that molecules eliminated in Resazurin assays were justifiably eliminated from later screening with MTT assays.
With `O=S(=O)(Cc1nc2ccccc2n1CC(O)c1ccc(Cl)cc1)c1ccccc1` (stereo not drawn) [Compound 97, OC(Cn1c(CS(=O)(=O)c2ccccc2)nc2ccccc12)c1ccc(Cl)cc1] the viability at 48 h, 15 µM was 102%. `O=C(c1nc(-c2ccc3cc[nH]c3c2)no1)N1CCN(c2nsc3ccccc23)CC1` [Compound 70, O=C(N1CCN(CC1)c1nsc2ccccc12)c1nc(no1)-c1ccc2cc[nH]c2c1] gave a viability at 48 h, 15 µM of 99.2%. For `O=S(=O)(CCSc1nnc(-c2ccccc2)c2ccccc12)c1ccccc1` [Compound 96, O=S(=O)(CCSc1nnc(-c2ccccc2)c2ccccc12)c1ccccc1], the viability at 48 h, 15 µM was 89.4%. Work on `O=C(c1cc2ccccc2[nH]1)N1CCN(S(=O)(=O)c2cccc3nonc23)CC1` [Compound 66, O=C(N1CCN(CC1)S(=O)(=O)c1cccc2nonc12)c1cc2ccccc2[nH]1] yielded a viability at 48 h, 15 µM of 98.3%. For `CCN1CCN(Cc2c(C(=O)N/N=C3/C(=O)N(C)c4ccccc43)nnn2-c2nonc2N)CC1` [Compound 61, CCN1CCN(Cc2c(nnn2-c2nonc2N)C(=O)N\N=C2\C(=O)N(C)c3ccccc23)CC1], the viability at 48 h, 15 µM was 98.8%. In the case of `Nc1nonc1-n1nnc(C(=O)N/N=C/c2c3ccccc3cc3ccccc23)c1COc1ccc(F)cc1` [Compound 60, Nc1nonc1-n1nnc(C(=O)N\N=C\c2c3ccccc3cc3ccccc23)c1COc1ccc(F)cc1], the viability at 48 h, 15 µM is reported as 88%. Compound `COc1ccc(OC)c(NC(=O)c2nnn(-c3ccc4noc(-c5ccccc5)c4c3)c2C)c1` [Compound 71, COc1ccc(OC)c(NC(=O)c2nnn(c2C)-c2ccc3noc(-c4ccccc4)c3c2)c1] has a viability at 48 h, 15 µM of 93%. `COc1cc2c(cc1OC)CN(CCc1ccc(NC(=O)c3cc(OC)c(OC)cc3NC(=O)c3cnc4ccccc4c3)cc1)CC2` [Tariquidar, reference compound] showed a viability at 48 h, 15 µM of 75.2%. Work on `NS(=O)(=O)c1cccc(NC(=O)CSc2nnnn2C2CC2)c1` [Compound 89, NS(=O)(=O)c1cccc(NC(=O)CSc2nnnn2C2CC2)c1] yielded a viability at 48 h, 15 µM of 93.7%. `Cc1onc(-c2ccccc2)c1-c1nnc(Cn2cnc3c(oc4ccccc43)c2=O)o1` [Compound 78, Cc1onc(c1-c1nnc(Cn2cnc3c4ccccc4oc3c2=O)o1)-c1ccccc1] gave a viability at 48 h, 15 µM of 95.2%. With `Cn1cnnc1SCc1c(C(=O)O)nnn1-c1nonc1N` [Compound 59, Cn1cnnc1SCc1c(nnn1-c1nonc1N)C(O)=O] the viability at 48 h, 15 µM was 101%.

System: P-gp
Test: not given
Parameters: method as in earlier work
Settings: ref [66-68]; cited from earlier work
For `COc1cc2c(cc1OC)CN(CCc1ccc(NC(=O)c3cc(OC)c(OC)cc3NC(=O)c3cnc4ccccc4c3)cc1)CC2` [Tariquidar, reference compound], the “P-gp Substrate? (known transport substrate of P-gp)” value is listed as “Yes”.

Reference: publication PMC12349723, “Computationally accelerated identification of P-glycoprotein inhibitors” (PLOS One, 2025)
